One assay has as its target T1, Neprilysin (Rattus norvegicus, UniProt P07861).
T1 sequence (P07861 whole entry): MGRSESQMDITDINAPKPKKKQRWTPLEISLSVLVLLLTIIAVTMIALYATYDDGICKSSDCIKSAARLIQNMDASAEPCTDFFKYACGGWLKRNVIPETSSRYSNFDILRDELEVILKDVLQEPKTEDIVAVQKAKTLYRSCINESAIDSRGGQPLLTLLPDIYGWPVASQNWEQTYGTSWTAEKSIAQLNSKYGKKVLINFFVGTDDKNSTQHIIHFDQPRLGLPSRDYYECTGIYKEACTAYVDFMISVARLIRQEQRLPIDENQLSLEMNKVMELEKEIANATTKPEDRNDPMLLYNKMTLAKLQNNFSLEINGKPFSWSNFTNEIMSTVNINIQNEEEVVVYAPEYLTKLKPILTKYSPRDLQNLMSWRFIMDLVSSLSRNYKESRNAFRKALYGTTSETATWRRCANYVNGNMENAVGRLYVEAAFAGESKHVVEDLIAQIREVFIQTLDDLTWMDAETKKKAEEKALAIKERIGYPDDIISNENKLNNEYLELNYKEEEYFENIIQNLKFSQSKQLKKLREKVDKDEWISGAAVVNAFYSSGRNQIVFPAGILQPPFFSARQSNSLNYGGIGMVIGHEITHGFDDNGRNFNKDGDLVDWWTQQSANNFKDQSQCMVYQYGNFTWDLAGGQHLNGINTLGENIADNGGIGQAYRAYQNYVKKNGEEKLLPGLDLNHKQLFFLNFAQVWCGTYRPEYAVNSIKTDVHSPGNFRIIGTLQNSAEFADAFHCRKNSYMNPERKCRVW
As to the kind of experiment: Inhibition of neutral endopeptidase (NEP) 24.11.

Assay [1] addresses Angiotensin-converting enzyme (Homo sapiens, UniProt P12821). Nature of the assay: Inhibition of angiotensin converting enzyme (ACE). The format is protein assay.
For assay [2], the species on record is Rattus norvegicus. Nature of the assay: Time taken for 50 % or more inhibition of angiotensin-I (AI) induced pressor response in normotensive rats. It counts as functional.
The species entered for assay [3] is Rattus norvegicus. Nature of the assay: Concentration that causes inhibition of angiotensin-I (AI) induced pressor response in normotensive rats after intra arterial injection. It counts as functional.
Assay [4] is filed under the species Rattus norvegicus. As to the kind of experiment: Compound concentration that causes inhibition of angiotensin-I (AI) induced pressor response in normotensive rats after intra arterial injection. The format is functional.

By IC50 is commonly meant the concentration at which inhibition is half-maximal. Lower therefore signals inhibition by little substance. For the molecule `O=C(N[C@@H](Cc1cccc2ccccc12)C(=O)N1CCC[C@H]1C(=O)O)[C@@H](S)Cc1ccccc1`, the half-maximal inhibitory concentration (IC50) is greater than 1000 nM against Neprilysin and 14 nM in assay [1].

Consider `O=C(N[C@@H](Cc1ccc2ccccc2c1)C(=O)N1CCC[C@H]1C(=O)O)[C@H](S)Cc1ccccc1`, for which the IC50 worked out at 583 nM on Neprilysin and 304 nM in assay [1].

On to `CC(C)[C@H](S)C(=O)N[C@@H](Cc1ccc(-c2ccccc2)cc1)C(=O)N[C@@H](CO)C(=O)O`, for which the concentration for half-maximal inhibition (IC50) at Neprilysin was determined as 43 nM; in assay [1] it was 100 nM.

For the molecule `O=C(N[C@@H](Cc1ccc(-c2ccccc2)cc1)C(=O)N1CCC[C@H]1C(=O)O)[C@@H](S)c1ccc2c(c1)OCO2`, the IC50 against Neprilysin came to 385 nM; in assay [1], 183 nM.

As to `O=C(N[C@@H](Cc1ccc2ccccc2c1)C(=O)N1CCC[C@H]1C(=O)O)[C@@H](S)Cc1ccccc1`, the results for the IC50 (at Neprilysin; in assay [1]) were 705 nM and 18 nM, respectively. In addition, the Duration of action in the assay filed under Rattus norvegicus [2] is given as 25 min. Also, in the assay filed under Rattus norvegicus [3], the Inhibition came out at 10 mg/kg.

Consider `CC(C)[C@H](S)C(=O)N[C@@H](Cc1ccc(-c2ccccc2)cc1)C(=O)N1CCC[C@H]1C(=O)O`, for which the values for the half-inhibitory concentration (IC50) (against Neprilysin; in assay [1]) were 500 nM and 319 nM, respectively.

`O=C(N[C@@H](Cc1ccc(-c2ccccc2)cc1)C(=O)N1CCC[C@H]1C(=O)O)[C@H](S)c1ccc2c(c1)OCO2`: the values for the 50% inhibitory concentration (IC50) (at Neprilysin; in assay [1]) were 222 nM and 378 nM, respectively.

On to `O=C(N[C@@H](Cc1ccc(-c2ccccc2)cc1)C(=O)N1CCC[C@H]1C(=O)O)[C@@H](S)Cc1ccccc1`, for which the concentration for half-maximal inhibition (IC50) against Neprilysin was found to be 117 nM; in assay [1], 57 nM. Further, the Duration of action in the assay filed under Rattus norvegicus [2] was 50 min. The same molecule displayed an Inhibition in the assay listed under Rattus norvegicus [3] of 10 mg/kg.

For `CC(C)[C@H](S)C(=O)N[C@@H](Cc1ccc(-c2ccccc2)cc1)C(=O)N[C@H](C(=O)O)C(C)C`, the figures for the IC50 (at Neprilysin; in assay [1]) were 33 nM and 175 nM, respectively. Also, the Duration of action in the assay filed under Rattus norvegicus [2] worked out at 70 min. In addition, the Inhibition in the assay filed under Rattus norvegicus [4] is 10 mg/kg.

Take `O=C(N[C@@H](Cc1ccc(-c2ccccc2)cc1)C(=O)N1CCC[C@H]1C(=O)O)[C@H](S)Cc1ccccc1`: the IC50 amounted to 59 nM against Neprilysin and 229 nM in assay [1].

As for `O=C(O)[C@H](Cc1ccc(-c2ccccc2)cc1)NC(=O)[C@@H](S)Cc1ccccc1`, the IC50 was 654 nM against Neprilysin and 80 nM in assay [1].

Take `O=C(N[C@@H](Cc1cccc2ccccc12)C(=O)N1CCC[C@H]1C(=O)O)[C@H](S)Cc1ccccc1`: the values for the IC50 (on Neprilysin; in assay [1]) were greater than 1000 nM and 27 nM, respectively.

Consider `CC(C)[C@H](S)C(=O)N[C@@H](Cc1ccc(-c2ccccc2)cc1)C(=O)N[C@@H](Cc1ccc(O)cc1)C(=O)O`, for which the 50% inhibitory concentration (IC50) at Neprilysin was 28 nM; in assay [1] it was 62 nM. This molecule registered a Duration of action in the assay listed under Rattus norvegicus [2] of 60 min. The Inhibition in the assay listed under Rattus norvegicus [3] amounted to 10 mg/kg.

Take `O=C(N[C@@H](Cc1ccc(-c2ccccc2)cc1)C(=O)O)[C@H](S)Cc1ccccc1`: the results for the half-maximal inhibitory concentration (IC50) (against Neprilysin; in assay [1]) were 100 nM and 688 nM, respectively.

Values taken from ChEMBL document CHEMBL1128869, “-Mercaptoacyl dipeptides that inhibit angiotensin converting enzyme and neutral endopeptidase 24.11” (Bioorg Med Chem Lett, 1995).
